# Patent US7091025B2, “Malathion carboxylesterase” (priority 1995, dated 2006)
# Where two headings read alike, the source gives them in different places.
# What was measured:
# M. domestica = conditions: cited from earlier work; for Resistance factor of M. domestica (in parentheses), Dz/para resistance type / Resistance factor of M. domestica (in parentheses), malathion resistance type: Bell and Busvine 1967, Townsend and Busvine 1969
# adult female L. cuprina = type: in vivo; conditions: for RF (Dz/para R): ratio of the LD50 of Llandillo 103 with the LD50 of LS2 / RF (Mal R): ratio of the LD50 of Woodside 5.2 with the LD50 of LS2: L. cuprina, NS = not significantly different from unity; for LD50 LS2 (OP Susceptible), with 95% confidence limits: strain LS2, topical in dioctylphthalate; for LD50 LS2 (OP Susceptible), with 95% confidence limits / LD50 Llandillo 103 (Dz/para Resistant), with 95% confidence limits / LD50 Woodside 5.2 (Mal Resistant), with 95% confidence limits: mortality at 24 hours; for LD50 Llandillo 103 (Dz/para Resistant), with 95% confidence limits: strain Llandillo 103, topical; for LD50 Woodside 5.2 (Mal Resistant), with 95% confidence limits: strain Woodside 5.2, topical
# Description: (§1) The following organophosphorus compounds were used: diazinon (O,O-diethyl O-2-isopropyl-6-methylpyrimidin-4-yl phosphorothioate, 91%, Mallinckrodt), parathion-methyl (O,O-dimethyl O-4-nitrophenyl phosphorothioate, 97.0%, Bayer), parathion (O,O-diethyl O-4-nitrophenyl phosphorothioate, 99%, Pestanal grade, Riedel-de-Haën), fenthion (O,O-dimethyl O-[3-methyl-4-(methylthio)phenyl]phosphorothioate, 98.8%, Bayer), fenthion-ethyl (O,O-diethyl O-[3-methyl-4-(methylthio)phenyl] phosphorothioate, a gift from Dr. G. Levot), dichlorvos (2,2-dichlorovinyl dimethyl phosphate, 99%, Chem Service), diethyl-dichlorvos (2,2-dichlorovinyl diethyl phosphate, a gift from Dr. J. Desmarchelier), di-isopropyl-dichlorvos (2,2-dichlorovinyl di-isopropyl phosphate, a gift from Dr. J. Desmarchelier), malathion (S-1,2-bis(ethoxycarbonyl)ethyl O,O-dimethyl phosphorodithioate, technical grade, Nufarm), isopropyl malathion (S-1,2-bis(ethoxycarbonyl)ethyl O,O-di-isopropyl phosphorodithioate, a gift from Dr. J. Desmarchelier).
# (§2) The toxicity of OPs in adult female L. cuprina was determined 3 or 4 days post-eclosion by application of OPs to the scutellum in 0.7 μl dioctylphthalate (Busvine, J. R., Bell, J. D. and Guneidy, A. M., Bulletin of Entomological Research 54: 589, 1963;; Townsend, M. G. and Busvine, J. R., Entomology Experimental and Applied 12: 243, 1969). Each OP was applied to at least 20 flies at each of at least 5 different concentrations, spanning the dose causing 50% mortality (LD50). Control groups were treated with solvent but no OP. Mortality was determined 24 hours later. Data were fitted to the probit curve using the Probit Or LOgit (POLO-PC) computer program (LeOra Software, 1987).
# [1] = system: adult L. cuprina, Llandillo 103 strain (Dz/para Resistant); test: toxicity of OPs in adult female L. cuprina, Llandillo 103 strain; type: in vivo, Lucilia cuprina
# Description: as §1, §2
# (§3) LD50s of 10 OPs were determined for the Woodside 5.2 strain (homozygous for a malathion resistance allele of LcαE7) and the Llandillo 103 strain (homozygous for a parathion/diazinon resistance allele of LcαE7). LD50s were also determined for the OP susceptible LS2 strain in order to calculate resistance factors (Table 8).
# [2] = system: adult L. cuprina, Woodside 5.2 strain (Mal Resistant); type: in vivo, Lucilia cuprina
# Description: as §1, §2, §3
# CCCC(=O)Oc1cccc2ccccc12 = test: α-naphthyl butyrate hydrolysis, expressed malathion susceptible LcαE7 product; type: biochemical, Lucilia cuprina; conditions: other: α-NB 6-200 μM, 25° C., pH 8.0
# Protocol: (§4) The in vitro expression of the OP susceptible allele of LcαE7 (clone Lc743) is described in patent application PCT/AU 95/00016 (“Enzyme based bioremediation”).
# (§5) The initial rates of reactions between cell extracts containing the expressed products of the malathion resistant and susceptible LcαE7 alleles and α-naphthyl acetate (α-NA) were determined at 25° C. using a recording spectrophotometer and the method of Mastrapaolo and Yourno (Analytical Biochemistry 115: 188, 1981). 6–200 μM α-NA dissolved in 10 μl of 2-methoxyethanol was added to 0.1 M Tris-HCl pH 8.0 (980 μl) in a quartz cuvette. α-Naphthyl acetate is slowly hydrolysed in water so a background rate was recorded before starting the enzymic reaction by the addition of 10 μl of diluted cell extract. Control reactions were performed with extracts of both uninfected cells and Bacpac 6 infected cells.
# As described above for α-NA hydrolysis except that 6–200 μM α-naphthyl butyrate (α-NB) was used instead of α-NA.
# (§6) Km and Vmax were calculated for both enzymes. Kcat was then calculated from the Vmax and the molarity of the LcαE7 products in their respective cell extracts (determined above).
# CC(=O)Oc1cccc2ccccc12 = test: α-naphthyl acetate hydrolysis, expressed malathion susceptible LcαE7 product; type: biochemical, Lucilia cuprina; conditions: other: α-NA 6-200 μM, 25° C., pH 8.0
# Protocol: as §4, §5, §6
# [3] = system: whole fly homogenates of L. cuprina strains; test: Chlorfenvinphos hydrolysis by whole fly homogenates; type: biochemical
# Protocol: Enzyme samples were diluted in 0.1M imidazole-HCl buffer pH 7.0 (“imidazole buffer”) to a final volume of 50 μl. Reactions were started by the addition 0.5 μl of (^14C-ethyl)-chlorfenvinphos (CVP, 306.5 MBq/mmole, Internationale Isotope Munchen) from a 7.5 mM stock solution in ethanol. The reaction was incubated at 30° C. and stopped by the addition of 300 μl dichloromethane and 150 μl of water followed by vigorous vortex mixing. The reactions were centrifuged to separate phases and 150 μl of the upper, aqueous phase was taken for scintillation counting to determine the amount of ^14C-diethylphosphate produced by hydrolysis of CVP. Incubations with boiled enzyme were also performed to control for non-enzymic hydrolysis of CVP.
# Whole fly homogenates of malathion resistant (strains RM-8, 60NE 1.1, 4.2, Beverly 6.2, Hampton Hill 6.1, Hampton Hill 6.2, Woodside 5.2, Rop Rmal 1, M22.2 6.3, M27.1 4.1), diazinon resistant (Gunning 107, Inverell 22, Q4, RM2.6, Llandillo 103, Sunbury 5.2) and susceptible (LBB 101, Llandillo 104, LS2) strains of L. cuprina were tested for esterase-mediated hydrolysis of CVP, a general OP (ie not a malathion-type OP). All 10 malathion resistant strains had greater CVP hydrolytic activities (1.5–3.0 pmol/min/mg) than the 3 susceptible strains (0.5–1.0 pmol/min/mg, but less activity than the 6 diazinon resistant strains (8.2–30.0 pmol/min/mg).
Molecule,"Resistance factor of M. domestica (in parentheses), Dz/para resistance type (M. domestica)","Resistance factor of M. domestica (in parentheses), malathion resistance type (M. domestica)",RF (Dz/para R): ratio of the LD50 of Llandillo 103 with the LD50 of LS2 (adult female L. cuprina),RF (Mal R): ratio of the LD50 of Woodside 5.2 with the LD50 of LS2 (adult female L. cuprina),"LD50 LS2 (OP Susceptible), with 95% confidence limits (adult female L. cuprina)","LD50 Llandillo 103 (Dz/para Resistant), with 95% confidence limits (adult female L. cuprina)","LD50 Woodside 5.2 (Mal Resistant), with 95% confidence limits (adult female L. cuprina)",also measured
"CCOP(=S)(OCC)Oc1ccc([N+](=O)[O-])cc1 [Parathion, O,O-diethyl O-4-nitrophenyl phosphorothioate]",35,3,20,6,"52 (48–55), ng/fly","1050 (890–1280), ng/fly","290 (270–310), ng/fly",resistance factor towards diethyl OP vs its dimethyl analogue [1]: about two-fold greater resistance factors
"CCOC(=O)CC(SP(=S)(OC)OC)C(=O)OCC (stereo not drawn) [Malathion, S-1,2-bis(ethoxycarbonyl)ethyl O,O-dimethyl phosphorodithioate]",2,157,–,> 130,"550 (480–610), ng/fly",490 (360–600) ng/fly,4 ng/fly,resistance to malathion of malathion resistant M. domestica strains (M. domestica; literature): > 100 fold; fold greater doses survived by flies with malathion resistance alleles of αE7 (adult female L. cuprina; in vivo): more than 100 fold
"COP(=S)(OC)Oc1ccc(SC)c(C)c1 [Fenthion, O,O-dimethyl O-[3-methyl-4-(methylthio)phenyl]phosphorothioate]",3 (3),7,3 (3),5,"61 (42–87), ng/fly",210 (180–240) ng/fly,320 (210–490) ng/fly,resistance factor towards dimethyl OP vs its diethyl analogue ([2]; in vivo): about two- to five-fold greater resistance factors
"CC(C)OP(=O)(OC=C(Cl)Cl)OC(C)C [Isopropyl Dichlorvos, 2,2-dichlorovinyl di-isopropyl phosphate]",–,–,–,3,"3500 (2200–4800), ng/fly",4600 (3400–5900) ng/fly,10200 (8800–12000) ng/fly,–
"CCOP(=O)(OC=C(Cl)Cl)OCC [Ethyl Dichlorvos, 2,2-dichlorovinyl diethyl phosphate]",–,–,7,3,"360 (300–420), ng/fly","2370 (2320–2410), ng/fly",1100 (700–1500) ng/fly,resistance factor towards diethyl OP vs its dimethyl analogue [1]: about two-fold greater resistance factors
"Lucilia cuprina LcαE7 (esterase E3) gene product, malathion susceptible allele (strain LS2; clone Lc743), Trp at position 251 (Lucilia cuprina)",–,–,–,–,–,–,–,Km (CCCC(=O)Oc1cccc2ccccc12): 20 ± 5 µM; kcat (CCCC(=O)Oc1cccc2ccccc12): 300 ± 33.3 s⁻¹; Km (CC(=O)Oc1cccc2ccccc12): 70 ± 5 µM; kcat (CC(=O)Oc1cccc2ccccc12): 183 ± 5 s⁻¹
"COP(=S)(OC)Oc1ccc([N+](=O)[O-])cc1 [Parathion-methyl, O,O-dimethyl O-4-nitrophenyl phosphorothioate]",9,10,12,27,"16 (11–20), ng/fly","185 (141–244), ng/fly","430 (390–490), ng/fly",resistance factor towards dimethyl OP vs its diethyl analogue ([2]; Woodside 5.2): about two- to five-fold greater resistance factors
"CCOP(=O)(OCC)O/C(=C\Cl)c1ccc(Cl)cc1Cl [CVP, chlorfenvinphos]",–,–,–,–,–,–,–,CVP hydrolytic activity ([3]; whole fly homogenates of 3 susceptible strains): 0.5 to 1.0 pmol/min/mg; CVP hydrolytic activity ([3]; whole fly homogenates of 6 diazinon resistant strains): 8.2 to 30.0 pmol/min/mg; CVP hydrolytic activity ([3]; whole fly homogenates of 10 malathion resistant strains): 1.5 to 3.0 pmol/min/mg
"CCOP(=S)(OCC)Oc1cc(C)nc(C(C)C)n1 [Diazinon, O,O-diethyl O-2-isopropyl-6-methylpyrimidin-4-yl phosphorothioate]",20,2,10,5,"57 (40–79), ng/fly","550 (490–630), ng/fly","270 (240–300), ng/fly",–
"CCOP(=S)(OCC)Oc1ccc(SC)c(C)c1 [Fenthion-ethyl, O,O-diethyl O-[3-methyl-4-(methylthio)phenyl] phosphorothioate]",–,–,2,2,330 (290–370) ng/fly,690 (570–830) ng/fly,730 (660–870) ng/fly,resistance factor towards diethyl OP vs its dimethyl analogue [1]: no significant difference
"CCOC(=O)CC(SP(=S)(OC(C)C)OC(C)C)C(=O)OCC (stereo not drawn) [Isopropyl Malathion, S-1,2-bis(ethoxycarbonyl)ethyl O,O-di-isopropyl phosphorodithioate]",–,4,–,1.8,"3600 (2700–4900), ng/fly","4900 (3700–6200), ng/fly","6400 (5900–7100), ng/fly",–
"COP(=O)(OC)OC=C(Cl)Cl [Dichlorvos, 2,2-dichlorovinyl dimethyl phosphate]",3,6,4,7,"41 (35–51), ng/fly","150 (95–190), ng/fly",270 (210–340) ng/fly,resistance factor towards dimethyl OP vs its diethyl analogue ([2]; Woodside 5.2): about two- to five-fold greater resistance factors
